From patent US12486253B2, “Therapeutics for the degradation of mutant BRAF” (C4 THERAPEUTICS, INC., priority 2021, dated 2025) come the findings set out here.

Each structure is given as a SMILES string. Where two headings read alike, the source gives them in different places.

The assay has as its target BRAF V600E (Homo sapiens, UniProt P15056, V600E). Description: HiBiT cellular BRAF^V600E degradation assay. The following applies: for DC50: concentration at which 50% of total cellular BRAF^V600E is degraded; for Emax: read-out: HiBit 24 h Emax. It is filed as cell-based. On the technique in general: With HiBiT, luminescence reflects the tagged protein that the partner subunit can reach.

[1] abbreviates: A375.10 cells, 24 h, residual protein remaining in the cell.

Chain of BRAF V600E (P15056 whole entry V600E): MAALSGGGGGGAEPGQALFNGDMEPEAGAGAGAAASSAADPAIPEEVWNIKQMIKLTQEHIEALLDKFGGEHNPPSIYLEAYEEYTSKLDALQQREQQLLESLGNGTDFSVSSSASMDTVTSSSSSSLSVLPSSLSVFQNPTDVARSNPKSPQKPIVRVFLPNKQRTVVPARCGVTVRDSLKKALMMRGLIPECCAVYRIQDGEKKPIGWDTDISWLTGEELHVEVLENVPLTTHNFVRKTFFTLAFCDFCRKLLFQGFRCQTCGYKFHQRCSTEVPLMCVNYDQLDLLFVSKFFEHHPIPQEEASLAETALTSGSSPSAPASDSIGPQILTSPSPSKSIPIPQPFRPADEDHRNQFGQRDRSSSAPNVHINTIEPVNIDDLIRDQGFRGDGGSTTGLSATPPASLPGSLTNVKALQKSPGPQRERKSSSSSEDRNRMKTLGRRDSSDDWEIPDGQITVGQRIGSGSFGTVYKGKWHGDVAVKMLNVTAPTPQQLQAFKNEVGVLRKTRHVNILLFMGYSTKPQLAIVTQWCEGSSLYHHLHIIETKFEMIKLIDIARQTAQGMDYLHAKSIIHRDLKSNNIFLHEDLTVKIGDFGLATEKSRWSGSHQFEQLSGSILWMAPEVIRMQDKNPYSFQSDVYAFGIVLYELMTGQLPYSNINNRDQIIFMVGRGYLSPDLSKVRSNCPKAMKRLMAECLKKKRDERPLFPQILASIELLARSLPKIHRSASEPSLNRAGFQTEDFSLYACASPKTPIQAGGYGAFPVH

The term DC50 denotes the concentration at which degradation of the target reaches its halfway point. What is called Emax is the maximal effect, on the per cent scale that the assay sets. For the setting “A375.10 cells, 24 h”, `CCN(C)S(=O)(=O)Nc1ccc(F)c(Oc2ccc3ncn([C@H]4COC5(CCN(C(=O)CC6(O)CCN(c7ccc8c(C9CCC(=O)NC9=O)nn(C)c8c7)CC6)CC5)C4)c(=O)c3c2)c1C#N` (stereo partly drawn) [Example 152, (3R)-3-[6-[2-cyano-3-[[ethyl(methyl)sulfamoyl]amino]-6-fluorophenoxy]-4-oxoquinazolin-3-yl]-8-[2-[1-[3-(2,6-dioxopiperidin-3-yl)-1-methylindazol-6-yl]-4-hydroxypiperidin-4-yl]acetyl]-1-oxa-8-azaspiro[4.5]decane] showed a DC50 of 27.2 nM. For the same molecule, the Emax under setting [1] is 25.2%.

For the molecule `CCN(C)S(=O)(=O)Nc1ccc(F)c(Oc2ccc3ncn(C4COC5(CCN(C(=O)NC6CCN(c7ccc(NC8CCC(=O)NC8=O)cc7F)CC6)CC5)C4)c(=O)c3c2)c1C#N` (stereo not shown) [Example 38, 3-[6-[2-cyano-3-[[ethyl(methyl)sulfamoyl]amino]-6-fluorophenoxy]-4-oxoquinazolin-3-yl]-N-[1-[4-[(2,6-dioxopiperidin-3-yl)amino]-2-fluorophenyl]piperidin-4-yl]-1-oxa-8-azaspiro[4.5]decane-8-carboxamide], the Emax was 11.4%. Further, the DC50 (A375.10 cells, 24 h) was found to be 36 nM.

The molecule `CCN(C)S(=O)(=O)Nc1ccc(F)c(Oc2ccc3ncn(-c4cnc(N5CCN(C(=O)CN6CCC(c7ccc(N[C@@H]8CCC(=O)NC8=O)cc7F)CC6)CC5)nc4)c(=O)c3c2N)c1C#N` [Example 101, 5-amino-6-[2-cyano-3-[[ethyl(methyl)sulfamoyl]amino]-6-fluorophenoxy]-3-[2-[4-[2-[4-[4-[[(3R)-2,6-dioxopiperidin-3-yl]amino]-2-fluorophenyl]piperidin-1-yl]acetyl]piperazin-1-yl]pyrimidin-5-yl]-4-oxoquinazoline] gave a DC50 (A375.10 cells, 24 h) of 27.7 nM. Moreover, under setting [1], the maximal effect (Emax) worked out at 11.6%.

As for `CCN(C)S(=O)(=O)Nc1ccc(F)c(Oc2ccc3ncn([C@@H]4COC5(CCN(C(=O)CN6CCC(c7ccc(NC8CCC(=O)NC8=O)cc7F)CC6)CC5)C4)c(=O)c3c2Br)c1C#N` (stereo partly drawn) [Example 74, (3S)-3-[5-bromo-6-[2-cyano-3-[[ethyl(methyl)sulfamoyl]amino]-6-fluorophenoxy]-4-oxoquinazolin-3-yl]-8-[2-[4-[4-[(2,6-dioxopiperidin-3-yl)amino]-2-fluorophenyl]piperidin-1-yl]acetyl]-1-oxa-8-azaspiro[4.5]decane], where the note is “A375.10 cells, 24 h”, half-maximal degradation (DC50) was put at 31.5 nM. In addition, the Emax under setting [1] was determined as 11.6%.

On to `CCN(C)S(=O)(=O)Nc1ccc(F)c(Oc2ccc3ncn(C4COC5(CCN(C(=O)CN6CCC(c7ccc8c(C9CCC(=O)NC9=O)nn(C)c8c7)CC6)CC5)C4)c(=O)c3c2)c1C#N` (single isomer, unassigned) [Example 150], for which, where the note is “A375.10 cells, 24 h”, the DC50 turned out to be 12.4 nM. Besides, the Emax under setting [1] is 11.5%.

With `N#Cc1c(NS(=O)(=O)N2C[C@@H](F)[C@H](F)C2)ccc(F)c1Oc1ccc2ncn(-c3cnc(N4CCN(C(=O)CN5CCC(c6ccc(N[C@H]7CCC(=O)NC7=O)cc6F)CC5)CC4)nc3)c(=O)c2c1` [Example 129, (3R,4R)—N-[2-cyano-3-[3-[2-[4-[2-[4-[4-[[(3S)-2,6-dioxopiperidin-3-yl]amino]-2-fluorophenyl]piperidin-1-yl]acetyl]piperazin-1-yl]pyrimidin-5-yl]-4-oxoquinazolin-6-yl]oxy-4-fluorophenyl]-3,4-difluoropyrrolidine-1-sulfonamide], the DC50 (A375.10 cells, 24 h) is 29.6 nM. For the same molecule, the Emax under setting [1] was 10.3%.

Turning to `N#Cc1c(NS(=O)(=O)N2CCCCC2)ccc(F)c1Oc1ccc2ncn(-c3cnc(N4CCN(C(=O)CN5CCC(c6ccc(N[C@@H]7CCC(=O)NC7=O)cc6F)CC5)CC4)nc3)c(=O)c2c1` [Example 106, N-[2-cyano-3-[3-[2-[4-[2-[4-[4-[[(3R)-2,6-dioxopiperidin-3-yl]amino]-2-fluorophenyl]piperidin-1-yl]acetyl]piperazin-1-yl]pyrimidin-5-yl]-4-oxoquinazolin-6-yl]oxy-4-fluorophenyl]piperidine-1-sulfonamide], the Emax came to 16.7%. Under “A375.10 cells, 24 h”, this molecule registered a DC50 of 43.6 nM.

As to `CCN(C)S(=O)(=O)Nc1ccc(F)c(Oc2ccc3ncn(-c4cnn(C5CCN(C(=O)CN6CCC(c7ccc8c(C9CCC(=O)NC9=O)nn(C)c8c7)CC6)CC5)c4)c(=O)c3c2)c1C#N` (stereo not shown) [Example 146, 6-[2-cyano-3-[[ethyl(methyl)sulfamoyl]amino]-6-fluorophenoxy]-3-[1-[1-[2-[4-[3-(2,6-dioxopiperidin-3-yl)-1-methylindazol-6-yl]piperidin-1-yl]acetyl]piperidin-4-yl]pyrazol-4-yl]-4-oxoquinazoline], it took 22.2 nM to reach half-maximal degradation (A375.10 cells, 24 h) (DC50). The Emax under setting [1] worked out at 16%.

Turning to `CO[C@@H]1CCN(S(=O)(=O)Nc2ccc(F)c(Oc3ccc4ncn([C@H]5COC6(CCN(C(=O)CC7(O)CCN(c8cc9c(cc8F)c(N8CCC(=O)NC8=O)nn9C)CC7)CC6)C5)c(=O)c4c3)c2C#N)C1` [Example 177, (3R)—N-[2-cyano-3-[3-[(3R)-8-[2-[1-[3-(2,4-dioxo-1,3-diazinan-1-yl)-5-fluoro-1-methylindazol-6-yl]-4-hydroxypiperidin-4-yl]acetyl]-1-oxa-8-azaspiro[4.5]decan-3-yl]-4-oxoquinazolin-6-yl]oxy-4-fluorophenyl]-3-methoxypyrrolidine-1-sulfonamide], the DC50 (A375.10 cells, 24 h) was 18 nM. Besides, the Emax under setting [1] stood at 22.3%.

In turn, `CCN(C)S(=O)(=O)Nc1ccc(F)c(Oc2ccc3ncn([C@H]4COC5(CCN(C(=O)CN6CCC(c7ccc(NC8CCC(=O)NC8=O)cc7F)C(F)(F)C6)CC5)C4)c(=O)c3c2)c1C#N` (stereo partly drawn) [Example 58, (3R)-3-[6-[2-cyano-3-[[ethyl(methyl)sulfamoyl]amino]-6-fluorophenoxy]-4-oxoquinazolin-3-yl]-8-[2-[4-[4-[(2,6-dioxopiperidin-3-yl)amino]-2-fluorophenyl]-3,3-difluoropiperidin-1-yl]acetyl]-1-oxa-8-azaspiro[4.5]decane] had a DC50 (A375.10 cells, 24 h) of 45.3 nM. Besides, under setting [1], the Emax amounted to 13.9%.

Regarding `CCN(C)S(=O)(=O)Nc1ccc(F)c(Oc2ccc3ncn(C4COC5(CCN(C(=O)CN6CCC(c7ccc8c(N9CCC(=O)NC9=O)nn(C)c8c7)CC6)CC5)C4)c(=O)c3c2)c1C#N` (stereo not shown) [Example 148, 3-[6-[2-cyano-3-[[ethyl(methyl)sulfamoyl]amino]-6-fluorophenoxy]-4-oxoquinazolin-3-yl]-8-[2-[4-[3-(2,4-dioxo-1,3-diazinan-1-yl)-1-methylindazol-6-yl]piperidin-1-yl]acetyl]-1-oxa-8-azaspiro[4.5]decane], for the setting “A375.10 cells, 24 h”, the DC50 is 18.4 nM. The Emax under setting [1] turned out to be 8.7%.

As to `CN(CC(F)F)S(=O)(=O)Nc1ccc(F)c(Oc2ccc3ncn(-c4cnc(N5CCN(C(=O)CN6CCC(c7ccc(N[C@H]8CCC(=O)NC8=O)cc7F)CC6)CC5)nc4)c(=O)c3c2)c1C#N` [Example 122, 6-[2-cyano-3-[[2,2-difluoroethyl(methyl)sulfamoyl]amino]-6-fluorophenoxy]-3-[2-[4-[2-[4-[4-[[(3S)-2,6-dioxopiperidin-3-yl]amino]-2-fluorophenyl]piperidin-1-yl]acetyl]piperazin-1-yl]pyrimidin-5-yl]-4-oxoquinazoline], the DC50 (A375.10 cells, 24 h) came to 27.1 nM. The Emax under setting [1] was determined as 8.26%.

For the molecule `N#Cc1c(NS(=O)(=O)C2CCC2)ccc(F)c1Oc1ccc2ncn(-c3cnc(N4CCN(C(=O)CN5CCC(c6ccc(N[C@@H]7CCC(=O)NC7=O)cc6F)CC5)CC4)nc3)c(=O)c2c1` [Example 133, N-[2-cyano-3-[3-[2-[4-[2-[4-[4-[[(3R)-2,6-dioxopiperidin-3-yl]amino]-2-fluorophenyl]piperidin-1-yl]acetyl]piperazin-1-yl]pyrimidin-5-yl]-4-oxoquinazolin-6-yl]oxy-4-fluorophenyl]cyclobutanesulfonamide], the DC50 (A375.10 cells, 24 h) amounted to 27.2 nM. The Emax under setting [1] amounted to 8.2%.

As to `CCN(C)S(=O)(=O)Nc1ccc(F)c(Oc2ccc3ncn([C@H]4CCC5(CCN(C(=O)CN6CCC(c7ccc(NC8CCC(=O)NC8=O)cc7F)CC6)CC5)C4)c(=O)c3c2Cl)c1C#N` (single isomer, unassigned) [Example 79], the half-maximal degradation concentration (DC50) (A375.10 cells, 24 h) amounted to 20.1 nM. Moreover, the Emax under setting [1] came to 12.9%.

On to `CCN(C)S(=O)(=O)Nc1ccc(F)c(Oc2ccc3ncn(C4COC5(CCN(C(=O)CN6CCC(c7ccc(NC8CCC(=O)NC8=O)cc7F)CC6)CC5)C4)c(=O)c3c2Cl)c1C#N` (stereo not shown) [Example 71, 3-[5-chloro-6-[2-cyano-3-[[ethyl(methyl)sulfamoyl]amino]-6-fluorophenoxy]-4-oxoquinazolin-3-yl]-8-[2-[4-[4-[(2,6-dioxopiperidin-3-yl)amino]-2-fluorophenyl]piperidin-1-yl]acetyl]-1-oxa-8-azaspiro[4.5]decane], for which, where the note is “A375.10 cells, 24 h”, it took 37.6 nM to reach half-maximal degradation (DC50). Moreover, under setting [1], the Emax is 10.5%.

Where the note is “A375.10 cells, 24 h”, `CN(C1CC1)S(=O)(=O)Nc1ccc(F)c(Oc2ccc3ncn(-c4cnc(N5CCN(C(=O)CN6CCC(c7ccc(N[C@@H]8CCC(=O)NC8=O)cc7F)CC6)CC5)nc4)c(=O)c3c2)c1C#N` [Example 126, 6-[2-cyano-3-[[cyclopropyl(methyl)sulfamoyl]amino]-6-fluorophenoxy]-3-[2-[4-[2-[4-[4-[[(3R)-2,6-dioxopiperidin-3-yl]amino]-2-fluorophenyl]piperidin-1-yl]acetyl]piperazin-1-yl]pyrimidin-5-yl]-4-oxoquinazoline] showed a half-maximal degradation concentration (DC50) of 22.2 nM. Also, the Emax under setting [1] is 13.7%.

The molecule `CCN(C)S(=O)(=O)Nc1ccc(F)c(Oc2ccc3ncn([C@H]4COC5(CCN(C(=O)CN6CCC(c7cc(OC)c(NC8CCC(=O)NC8=O)cc7F)CC6)CC5)C4)c(=O)c3c2)c1C#N` (stereo partly drawn) [Example 75, (3R)-3-[6-[2-cyano-3-[[ethyl(methyl)sulfamoyl]amino]-6-fluorophenoxy]-4-oxoquinazolin-3-yl]-8-[2-[4-[4-[(2,6-dioxopiperidin-3-yl)amino]-2-fluoro-5-methoxyphenyl]piperidin-1-yl]acetyl]-1-oxa-8-azaspiro[4.5]decane] registered a half-maximal degradation concentration (DC50) (A375.10 cells, 24 h) of 43.2 nM. In addition, under setting [1], the Emax was 8.31%.
